Test results published in patent US20110123483A1, “HMGB1 FOR CANCER TREATMENT” (DEUTSCHES KREBSFORSCHUNGSZENTRUM, priority 2009, published 2011).

Experiments:
Format in all cases: cell-based, human
[1] = test system: U251MG glioblastoma cells; test: Cytotoxicity assay, cell survival by crystal violet staining
Procedure: 20,000 U251MG glioblastoma cells or human astrocytic cells (ScienCell) were plated into 96-well plates. After 24 h cells were treated with rhHMGB1 (Sigma Aldrich) or rat recombinant HMGB1 (generously provided by Angelika Bierhaus, Heidelberg, Germany), and TRAIL (for 24 h) or Temozolomide (for 72 h) alone or in combination, respectively. […] Cell proliferation was assessed by seeding 50,000 U251 MG cells in 6 cm culture plates and treatment with rhHMGB1, followed by counting the cells in a Neubauer chamber at day 0, 2, 4 and 5.

[2] = test system: JNK1/2; test: Western blot analysis of JNK1/2 phosphorylation; conditions: NAC, rhHMGB1 40 nM (FIG. 3E)
Procedure: The U251 MG tumor cells were lysed in lysis buffer containing 20 mmol/L Tris-HCl (pH 7.4), 137 mmol/L NaCl, 10% (v/v) glycerine, 1% Triton X-100, 2 mmol/L EDTA, 100 mmol/L phenylmethylsulfonyl fluoride, and protease inhibitors (Complete mini; Roche Molecular Biochemicals). For the detection of phosphoprotein levels, 10 mmol/L NaPPi, 50 mmol/L NaF, and 20 mmol/L NaVO4 were added to the lysis buffer. After 15 min incubation on ice, the lysates were centrifuged at 14,000×g for 10 min. The total protein concentration of the lysates was measured using the Bradford assay (Bio-Rad). Soluble protein (25-100 μg per lane) was separated on 10% to 15% polyacrylamide gels and blotted onto nitrocellulose by standard procedures. […]

[3] = test system: U251 MG cells; test: ROS measurement by DCF fluorescence and FACS analysis; conditions: co-treatment with rhHMGB1 (FIG. 3A)
Procedure: For measurement of reactive oxygen species (ROS) and mitochondrial membrane potential (MMP) 1.5×10^6 U251 MG cells were seeded in 6 cm plates, treated with 40 nM rhHMGB1 for 24 h and incubated with the fluorescent DiOC6 (3,3′-dihexyloxacarbocyanine iodide, 40 nmol/ll, Sigma Chemical Co., St. Louis, Mo.) or with the fluorescent H2DCF-DA (dichlorodihydrofluorescein diacetate, 10 μM, Invitrogen) for 1 h at 37° C., respectively. The cells were trypsinized and centrifuged at 2,000 rpm for 5 min at 4° C. The supernatant was discarded and the pellet was washed 2× with sterile Dulbecco's PBS containing 0.1% fetal calf serum on ice and again centrifuged at 2,000 rpm for 5 min at 4° C. The pellet was resuspended in 500 μl sterile Dulbecco's PBS on ice. Oxidation of H2DCF to DCF by ROS and DiOC6 accumulation in mitochondria were measured immediately at FL-1 by flow cytometry using a FACScalibur (Beckton Dickinson, Heidelberg, Germany). Cell cycle was determined by measurement of priopidiumiodide (PI)-uptake of the cells according to standard procedures. Briefly, the cells were harvested and washed twice in sterile Dulbecco's PBS on ice, spun down at 2,000 rpm for 5 min at 4° C. and fixed with 70% ethanol for 30 min at 4° C. Contaminating RNA was eliminated by treatment with 100 μg/ml of RNase A, then 50 μg/ml PI was added and DNA content was measured immediately at FI-2. […]

[4] = test system: pseudo rho zero cells; test: Survival of pseudo rho zero cells by crystal violet analysis; conditions: TRAIL 100 ng/ml, 24 h (FIG. 5)
Procedure: U251 glioblastoma cells and non-immortalized human astrocytic cells (ScienCell, USA) were maintained in DMEM (Life Technologies) containing 10% FCS, 4.5 g/L glucose, glutamine, 110 mg/L sodium pyruvate, and 1% penicillin-streptomycin (Life Technologies) and in astrocyte medium (ScienCell) containing 2% FBS (fetal bovine serum) and 1% penicillin-streptomycin at 37° C. and 5% CO2. For the generation of pseudo rho zero cells (0.0), U251 MG cells were treated with low dose (250 ng/ml) ethidiumbromide for 3 months. The cells were supplemented with DMEM (10% FCS, 1% P/S) containing 50 μg/ml L-pyruvate and 5 mg/ml uridine (King and Attardi, 1989).
20,000 U251MG glioblastoma cells or human astrocytic cells (ScienCell) were plated into 96-well plates. After 24 h cells were treated with rhHMGB1 (Sigma Aldrich) or rat recombinant HMGB1 (generously provided by Angelika Bierhaus, Heidelberg, Germany), and TRAIL (for 24 h) or Temozolomide (for 72 h) alone or in combination, respectively. Cell survival was measured by crystal violet staining as described previously (Gdynia et al., 2007). Cell proliferation was assessed by seeding 50,000 U251 MG cells in 6 cm culture plates and treatment with rhHMGB1, followed by counting the cells in a Neubauer chamber at day 0, 2, 4 and 5.

[5] = test system: U251 MG cells; test: Subcellular fractionation and Western blot: cytochrome c release, caspase 3 cleavage
Procedure: The U251 MG tumor cells were lysed in lysis buffer containing 20 mmol/L Tris-HCl (pH 7.4), 137 mmol/L NaCl, 10% (v/v) glycerine, 1% Triton X-100, 2 mmol/L EDTA, 100 mmol/L phenylmethylsulfonyl fluoride, and protease inhibitors (Complete mini; Roche Molecular Biochemicals). For the detection of phosphoprotein levels, 10 mmol/L NaPPi, 50 mmol/L NaF, and 20 mmol/L NaVO4 were added to the lysis buffer. After 15 min incubation on ice, the lysates were centrifuged at 14,000×g for 10 min. The total protein concentration of the lysates was measured using the Bradford assay (Bio-Rad). Soluble protein (25-100 μg per lane) was separated on 10% to 15% polyacrylamide gels and blotted onto nitrocellulose by standard procedures. The membranes were washed, incubated with primary antibody as indicated: mouse anti-human caspase-3 (1:500, Imgenex, San Diego, Calif.); polyclonal rabbit anti-human phosphorylated p44/42 mitogen-activated protein kinase and polyclonal rabbit anti-human phosphorylated stress-activated protein kinase/JNK (1:1,000, Cell Signaling Technology, Inc.); polyclonal anti-rabbit JNK 54/46 (1:1,000, Cell Signaling Technology, Inc.); polyclonal rabbit anti-human IkBalpha (1:500, Santa Cruz Biotechnology, Inc.); mouse monoclonal anti-human BNIP3 (1:10,000, R&D Systems, Inc.); mouse monoclonal anti-human phosphorylated-histone H2A.X (Upstate, Inc.); mouse monoclonal anti-human cytochrome c (1:100, BD Biosciences Pharmingen GmbH, Heidelberg, Germany); mouse anti-human cytochrome c oxidase complex IV (1:100, Molecular Probes, Invitrogen, Karlsruhe, Germany); polyclonal rabbit antimalondialdehyde (1:250, Calbiochem, Merck, Darmstadt, Germany) and mouse monoclonal antibodies to β-tubulin or β-actin (1:3,000, Sigma Chemical Co., St. Louis, Mo.), washed, and incubated with the appropriate secondary antibody (1:3,000; horseradish peroxidase-conjugated, Bio-Rad). Bound antibodies were visualized using an enhanced chemiluminescence detection system (GE-Healthcare, Uppsala, Sweden).
Enrichment of mitochondrial fractions was performed using the ApoAlert Cell Fractionation Kit (Clontech, Mountain View, Calif.) as described previously (Gdynia et al., 2008). Briefly, after centrifugation and several washing steps, the cell pellet was resuspended in ice-cold 1× Fractionation Buffer Mix containing protease inhibitors (Complete mini; Roche Molecular Biochemicals, Indianapolis, Ind.) and 1 mM 1,4-Dithio-DL-threitol solution (DTT). After 10 min incubation on ice, cells were homogenized with a dounce tissue grinder. Efficiency of homogenization was controlled by microscopy. The homogenate was centrifuged at 700×g for 10 min at 4° C. and the resulting supernatant at 10,000×g for 25 min at 4° C. […]

**Q.** For CC(=O)N[C@@H](CS)C(=O)O [NAC, reference compound], which “effect on rhHMGB1-induced cell death” value ([1]; NAC 1 mM, 48 h co-treatment with rhHMGB1 (FIG. 3B)) is on record?
**A.** substantially inhibited

**Q.** What about the “effect on JNK activation after rhHMGB1 treatment” value [2] of the same molecule?
**A.** prevented the activation of JNK

**Q.** And the “effect on rhHMGB1-induced ROS generation” value [3]?
**A.** partially prevented

**Q.** With O=c1ccn([C@@H]2O[C@H](CO)[C@@H](O)[C@H]2O)c(=O)[nH]1 [uridine, reference compound] as the molecule, how does the “effect on rhHMGB1-induced cell death” value ([1]; uridine 5 mg/ml in culture medium, 48 h (FIG. 3F)) read?
**A.** substantially inhibited

B1: TRAIL: death ligand TRAIL, positive control for cytotoxicity (protein, UniProt P50591 1-281, looked up)
Tumor necrosis factor ligand …: MAMMEVQGGPSLGQTCVLIVIFTVLLQSLCVAVTYVYFTNELKQMQDKYSKSGIACFLKEDDSYWDPNDEESMNSPCWQVKWQLRQLVRKMILRTSEETISTVQEKQQNISPLVRERGPQRVAAHITGTRGRSNTLSSPNSKNEKALGRKINSWESSRSGHSFLSNLHLRNGELVIHEKGFYYIYSQTYFRFQEEIKENTKNDKQMVQYIYKYTSYPDPILLMKSARNSCWSKDAEYGLYSIYQGGIFELKENDRIFVSVTNEHLIDMDHEASFFGAFLVG
**Q.** Which results are given for B1?
**A.** apoptotic signalling in pseudo rho zero cells [4]: still intact; release of cytochrome c into the cytosolic fraction ([5]; TRAIL 200 ng/ml, 3 h (FIG. 6)): detected; cleavage of caspase 3 ([5]; TRAIL treatment (FIG. 6)): observed
